According to patent US12570661B2, “Isoform-specific aldehyde dehydrogenase inhibitors” (The Board of Trustees of the Leland Stanford Junior …, priority 2020, dated 2026):
Entries after “also recorded” stand apart in the source; their conditions may differ. Read-outs that look alike come from different tables or passages of the source. Each block holds one molecule with its values, some of them ahead of it.

Key:
[1] = biological target: T1, ALDH1B1 (Homo sapiens, UniProt P30837); assay: ALDH1B1 enzyme kinetics assay (NADH fluorescence, acetaldehyde substrate); assay type: biochemical; design: made in house; host or cells: E. coli BL21 (optionally co-expressed with GroEL/GroES); details: for IC50: 1 μg/mL enzyme, 1 mM acetaldehyde, 1 mM NAD+, read-out: ALDH1B1(in vitro) IC50; for ALDH1B1 inhibition / isoform selectivity (in words): enzyme kinetics assays against ALDH isoforms
T1 sequence (P30837 18-517): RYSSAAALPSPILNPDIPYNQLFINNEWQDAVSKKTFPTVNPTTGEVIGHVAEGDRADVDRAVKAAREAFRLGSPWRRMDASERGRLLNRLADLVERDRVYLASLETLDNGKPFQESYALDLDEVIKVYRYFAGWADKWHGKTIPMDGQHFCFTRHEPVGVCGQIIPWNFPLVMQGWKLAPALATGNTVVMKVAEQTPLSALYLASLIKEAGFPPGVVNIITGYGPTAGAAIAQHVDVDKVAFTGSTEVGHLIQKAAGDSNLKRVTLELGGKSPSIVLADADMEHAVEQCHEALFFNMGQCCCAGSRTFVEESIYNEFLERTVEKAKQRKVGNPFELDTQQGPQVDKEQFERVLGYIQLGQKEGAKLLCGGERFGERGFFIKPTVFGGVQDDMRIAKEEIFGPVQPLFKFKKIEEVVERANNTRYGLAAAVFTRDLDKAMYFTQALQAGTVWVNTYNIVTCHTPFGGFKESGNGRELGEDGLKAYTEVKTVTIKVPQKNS
Description: Cloning, expression, and purification of human recombinant ALDH1A1, ALDH1A3, ALDH2, ALDH3A1, ALDH3A2, ALDH4A1, ALDH5A1 and ALDH7A1 isozymes were conducted as described previously (Chen, C. H. et al. (2015) Proc. Natl. Acad. Sci. U.S.A. 112, 3074-3079). Human ALDH1A2 (Origene, SC109995) and ALDH1B1 (T. Hurley, Indiana University) plasmids were cloned into the pET-15b expression vector (Novagen, 69661-3) containing an N-terminal hexahistidine tag. The mitochondria-targeting sequence of ALDH1B1 was also removed. For protein expression without chaperones, the pET-15b based plasmids were transformed into competent BL21 E. coli cells, which were subsequently grown in 1 L of Luria-Bertani medium containing 100 μg/mL ampicillin at 37° C. Once the OD600 value reached 0.6, the culture was transferred to 16° C. and 0.5 mM isopropyl β-d-1-thiogalactopyranoside was introduced to induce protein expression overnight. The bacteria were then pelleted by centrifugation (3000×g, 4° C. for 30 rain) and harvested. 40 mL BugBuster Master Mix buffer (MilliporeSigrna) containing a protease inhibitor cocktail (cOmplete; Roche) was added, and the cells were lysed by mechanically rolling the suspension at room temperature for 25 min. The lysate was centrifuged (16000×g, 4° C. for 30 min), and the soluble fraction was collected and mixed with 2 mL of Ni-NTA Superflow resin (Qiagen). After the mixture was avowed to rock at 4° C. for 1 h, it was used to create a 10-mL gravity column, which was sequentially treated with 40 mL of wash buffer 1 (20 mM sodium phosphate, 500 mM NaCl, 1 mM DTT, 20 mM imidazole, 5% glycerol, pH 7.4) and 25 mL of wash buffer 2 (20 mM sodium phosphate, 500 mM NaCl, 1 mM DTT, 40 mM imidazole, 5% glycerol, pH 7.4). The hexahistidine-tagged protein was then recovered by treated the column with 5 mL elution buffer (20 mM sodium phosphate, 500 mM NaCl, 1 mM DTT, 400 mM imidazole, 5% glycerol, pH 7.4) and collecting 500-μL fractions. The protein concentration for each fraction was measured (500 μL elution volume was collected as one fraction and was immediately mixed with 500 μL glycerol. The protein concentration for each fraction was measured (600 nm Protein Assay Reagent; Thermo Fisher Scientific), and protein-containing fractions were diluted with an equal volume of glycerol and stored at −80° C. Samples from each step were also collected for SDS-PAGE gel analysis. For ALDH1B1 protein co-expression with chaperones, pET-15b-ALDH1B1 and GroEL/GroES (Addgene, plasmid pBB541) plasmids were co-transformed into competent BL21 E. coli cells, which were subsequently grown in 1 L of Luria-Bertani medium containing 100 μg/mL ampicillin and 50 μg/mL spectinomycin at 37° C. The hexahistidine-tagged ALDH1B1 protein was then expressed and purified as described above.
To evaluate compound activities against ALDH isoforms, reaction mixtures consisting of enzyme assay buffer (100 mM sodium phosphate, 1 mM MgCl2, pH 8.0) and 0.1% DMSO, 1 mM β-mercaptoethanol, 1 mM NAD^+, and the bacterially expressed protein were prepared in white opaque 96-well assay plates (100 μL/well, flat-bottom and non-treated; Corning Costar). 5 μg/mL ALDH enzyme was used for single-dose (1, 10, 50 μM) compound test, and 1 μg/mL ALDH enzyme was used for IC50s determination. Acetaldehyde was then added to each well to achieve an initial substrate concentration of 1 mM, and the resulting enzymatic activity was measured based on NADH fluorescence. The fluorescence signal was read over the course of 10 min on a SpectraMax M2e microplate reader (340-nm excitation and 460-nm emission; Molecular Devices) operated by SoftMax Pro software. Compound activities were normalized to a DMSO control, and dose-response inhibition curves were fitted with four-parameter non-linear regression using Prism software. […]

[2] = biological target: T1, ALDH1B1; assay: ALDEFLUOR assay of cellular ALDH1B1 activity in ALDH1B1-transfected ALDH1A3−/− A375 cells; assay type: cell-based; details: for IC50: ALDEFLUOR, ALDH1B1-overexpressing ALDH1A3−/− A375 cells, read-out: ALDH1B1(in cellulo) IC50; for effect on ALDH1B1-dependent ALDEFLUOR signal (cellular ALDH1B1 activity): flow cytometry
Description: ALDH1A3^−/− A375 cells were seeded into a 6-well plate at a density of 5×10^5 cells/well and cultured for 24 h. The cells were then transfected with either pCMV6-entry, pCMV6-GFP (Addgene, plasmid 11153), or pCMV-ALDH1B1. After 24 h, the media was replaced and transfection efficiencies were estimated by the EGFP-positive cells in the pCMV-GFP-transfected well. The cells were cultured for another 24 h and their ALDH activities were quantified using the ALDEFLUOR assay. Briefly, the cells were isolated from the plate with trypsin and resuspended in ALDEFLUOR assay buffer (STEMCELL Technologies) at a concentration of 4×10^5 cells/mL. Each ALDEFLUOR assay used 0.5 mL of this cell suspension, and the cells were treated with individual compounds for 15 min at 37° C. and 5% CO2. The cell suspensions were then treated with 2.5 μL ALDEFLUOR reagent and incubated for an additional 30 min at 37° C. and 5% CO2. The cells were then collected by centrifugation (450×g) for 5 min at room temperature, resuspended in 200 μL assay buffer, and analyzed with an LSR II flow cytometer (BD Biosciences) at the Stanford FACS facility.

[3] = HEK-293T cytotoxicity (cell viability) assay; assay type: cell-based; details: human, HEK-293T cells; adherent HEK-293T, 4-5 days, CellTiter-Glo; read-out: HEK293T GI50
Description: HEK-293T cells were seeded into a 96-well plate at a density of 5×10^3 cells/well and treated with varying concentrations of selected compounds or an equivalent amount of DMSO vehicle. The cells were cultured for 4-5 days without a media change, and after the DMSO-treated cells approached 100% confluence, the cell viabilities were measured using a CellTiter-Glo 3D Cell Viability Assay kit (Promega) and a Veritas microplate luminometer (Turner BioSystems) as described above.

[4] = test system: NIH-3T3 cells; assay: Seahorse oxygen-consumption-rate assay (NIH3T3); assay type: cell-based, murine; details: Mus musculus
[5] = test system: SW480 cells (spheroid); assay: Matrigel spheroid growth / viability assay, SW480; assay type: cell-based; details: for GI50: Matrigel spheroid culture, 7 days, read-out: Spheroid SW480 GI50
Description: To prepare Matrigel-coated culture plates, 96-well and 24-well plates were placed on ice and coated with 25 μL or 300 μL, respectively, of Matrigel matrix (Corning, LDEV-free) that had been thawed overnight at 4° C. The plates were then placed in a 37° C. incubator for 30 min to allow the Matrigel to solidify. SW480 or HCT116 cells were suspended in spheroid culture medium (RPMI-1640 containing 20 ng/mL recombinant human epidermal growth factor (Abcam, ab9697), 20 ng/mL recombinant human fibroblast growth factor (BioVision, 4037), 5 μg/mL heparin (Sigma), 1× N-2 supplement (Thermo Fisher Scientific), 100 U/mL penicillin, and 100 μg/mL streptomycin) and then seeded into the 96-well and 24-well Matrigel-coated plates at densities of 1,000 or 5,000 cells/well and total well volumes of […] or 1 mL, respectively. Compounds were diluted in spheroid culture medium and added to the wells, and the spheroid were grown at 37° C. with 5% CO2 for 7 days.
To quantify spheroid growth at the 7-day endpoint, unstained spheroids were imaged with phase-contrast illumination using a Keyence BZ-X710 microscope. Some cultures were also stained with crystal violet to enable brightfield imaging. Briefly, the Matrigel spheroids cultures were treated with PBS containing 0.5% crystal violet and 5% methanol for 15 min at 37° C. and then gently washed 4×5 min with PBS. Spheroid sizes were quantified with ImageJ (Fiji) software using masks created with the default “Threshold” function and foreground/background adjustments to optimize masking fidelity. The full field of view was then selected for “Analyze Particles” analysis, providing numbered list of each spheroid and its area in the micrograph. In the few cases that two adjacent spheroids were treated as one object by the image processing software, their measurements were manually corrected using the “Freehand Selections” tool. To exclude background and debris from dead cells, spheroids with areas less than 500 μm^2 were excluded from the image analyses.
(§1) SW480 or HCT116 cells were seeded into regular or Matrigel-coated 96-well plates at a density of 1000 cells/well. The cells were cultured in the corresponding adherent or spheroid culture medium (200 μL/well) containing the designated compounds or an equivalent amount of DMSO vehicle. Each culture was maintained for 7 days, and then cell viabilities were measured using a CellTiter-Glo 3D Cell Viability Assay kit (Promega). Briefly, 100 μL of the culture medium was removed from each well and replaced with 100 μL 3D Cell Assay reagent. The cells in each well were next homogenized by vigorous pipetting, and the plate was incubated for 10 min at room temperature to stabilize the chemiluminescent signal. A 150-μL aliquot from each well was then transferred into a white opaque 96-well assay plate (flat-bottom and non-treated; Corning Costar) and luminescence intensities were measured with a Veritas microplate luminometer (Turner BioSystems).

[6] = test system: SW480 cells (adherent); assay: Cell viability assay, adherent SW480 cultures; assay type: cell-based, human; details: adherent culture, 7 days
Description: as §1

IC50 [1]: 82 nM
IC50 [2]: 110 nM
Compound: COc1ccccc1N1C=C(c2ccc(-c3ccccc3)cc2)N2CC(C)(C)CN=C21 [HPI-279]

IC50 [1]: 44 nM
Compound: CCc1ccccc1C1=CN(c2ccc(-c3ccccc3)cc2)C2=NCCCCN12 [STL5-T-0027]
GI50 [3]: 4300 nM

effect on ALDH1B1-dependent ALDEFLUOR signal (cellular ALDH1B1 activity) [2]: inhibited; also recorded: abrogated
Compound: CCN(CC)c1ccc(C=O)cc1 [DEAB, N-diethylaminobenzaldehyde, reference compound]

IC50 [1]: 42 nM
Compound: COc1cc(Cl)ccc1C1=CN(c2ccc(-c3ccccc3)cc2)C2=NCCCCN12 [STL5-T-0025]
GI50 [3]: 5200 nM

IC50 [1]: 74 nM
Compound: CCc1cc(Cl)ccc1C1=CN(c2ccc(-c3ccccc3CC)cc2)C2=NCCCN12 [STL8-T-0003]
GI50 [3]: 1300 nM

IC50 [1]: 1900 nM
IC50 [2]: 6700 nM
Compound: CCOc1ccc(N2C=C(c3ccc(-c4ccccc4)cc3)N3CCCCN=C32)cc1 [Guanidine 73]
IC50 [4]: 2400 nM

IC50 [1]: 81 nM
IC50 [2]: 110 nM
Compound: COc1ccccc1N1C=C(c2ccc(-c3ccccc3)cc2)N2CCCCN=C21 [HPI-269]
GI50 [3]: 3400 nM
IC50 [4]: 580 nM

Compound: COc1ccccc1C1=CN(c2ccc(-c3ccccc3)cc2)C2=NCCCN12 [Guanidine 66]
ALDH1B1 inhibition / isoform selectivity (in words) [1]: ALDH1B1-selective inhibitors
effect on ALDH1B1-dependent ALDEFLUOR signal (cellular ALDH1B1 activity) [2]: inhibits cellular ALDH1B1 activity

IC50 [1]: 130 nM
GI50 ([5]; Homo sapiens, SW480, 168 h): 1600 nM
GI50 ([6]; Homo sapiens, SW480, 168 h): 2900 nM
Compound: CCOc1ccc(C2=CN(c3ccc(-c4ccccc4OC)cc3)C3=NCCCN23)c(OC)c1 [Guanidine 65]

ALDH1B1 inhibition / isoform selectivity (in words) [1]: ALDH1B1-selective inhibitors
Compound: Br.COc1ccccc1C1=CN(c2ccc(-c3ccccc3)cc2)C2=NCCCCN12 [Guanidine 68]

IC50 [1]: 100 nM
GI50 ([5]; Homo sapiens, SW480, 168 h): 1100 nM
GI50 ([6]; Homo sapiens, SW480, 168 h): 1300 nM
Compound: CCOc1ccc(C2=CN(c3ccc(-c4ccccc4OC)cc3)C3=NCCCCN23)c(OC)c1 [Guanidine 64]

IC50 [1]: 52 nM
Compound: CCc1cc(Cl)ccc1C1=CN(c2ccc(-c3ccccc3)cc2)C2=NCCCN12 [STL8-T-0002]
GI50 [3]: 1500 nM

potency against ALDH1B1 relative to imidazolium 2 (and 8) ([1]; dose-response, FIG. 15 panel d): approximately 2 fold
Compound: COc1ccccc1-n1cc(-c2ccc(-c3ccncc3)cc2)[n+]2c1CCCCC2.[Br-] [Imidazolium 13]
ALDH1B1 inhibition / isoform selectivity (in words) [1]: ALDH1B1-specific inhibitors; also recorded: enhanced specificity for ALDH1B1 in comparison to imidazolium 2

IC50 [1]: 30 nM
GI50 ([5]; Homo sapiens, SW480, 168 h): 440 nM
GI50 ([6]; Homo sapiens, SW480, 168 h): 2700 nM
Compound: COc1cc(Cl)ccc1C1=CN(c2ccc(-c3ccccc3OC)cc2)C2=NCCCN12 [STL5-T-0057]
GI50 [3]: 1700 nM

Compound: COc1ccccc1C1=CN(c2ccc(-c3ccccc3)cc2)C2=NCCCN12 [STL5-T-0001]
IC50 [1]: 98 nM
GI50 [5]: 1500 nM
GI50 [6]: 1900 nM

effect on ALDH1B1-dependent ALDEFLUOR signal (cellular ALDH1B1 activity) [2]: inhibit cellular ALDH1B1 activity
Compound: COc1ccccc1-c1ccc(C2=CN(c3ccccc3OC)C3=NCCCCN23)cc1 [Compound 72]
efficacy on SW480 spheroid growth in combination with 5-FU ([5]; combination with 5-FU): closely matched the product of their individual activities
